According to PMC8599359 (Molecular Neurobiology, 2021):

Legend:
[1] = PK and BD of DTG during pregnancy; format: in vivo, mouse; conditions: for Kp: C3H/HeJ, mouse, oral, 50 mg/kg
Text: Drug administration was started at the day of plug detection (GD 0.5) and continued up to the day of birth of pups. Blood samples were collected from dams into heparinized tubes by cheek puncture (submandibular vein) using a 5-mm lancet (MEDIpoint, Inc., Mineola, NY) at GD 8.5 and 16.5 and postnatal days (PND) 4, 12, and 21 for plasma collection. […] Each sample (plasma or tissue) evaluated for DTG levels was randomly selected from distinct litters.
DTG was purchased from BOC Sciences (Shirley, NY). […]
PK and BD of DTG during pregnancy
DTG levels were quantitated in plasma, and tissue homogenates by ultraperformance liquid chromatography tandem mass spectrometry (UPLC-MS/MS). […]
ml of acetonitrile (ACN) and 10 µl of internal standard (IS) solution were added to 2 5 µl of plasma.
DTG-d3 at a final concentration of 50 ng/m l ser ved as the IS. Samples were vortexed and centrifuged at 17,000×g for 10 min at 4 °C. Supernatants were dried using a speed- vac and reconstituted in 100 µl 50% (v/v) ACN in water. The samples were vortexed and centrifuged at […]
analysis, 50– 200 mg of tissue (placenta, fetal brain) was homogenized in 9 volumes of 90% (v/v) methanol (MeOH) in water using a Qiagen TissueLyzer II (Valencia, CA). Subsequently, 280 µl o f MeOH, 10 µl of 80% (v/v) MeOH in water, and 10 µl IS were added to 100 µl of tissue homogenate.
Samples were then vortexed, left for 5 min on ice and centrifuged at 17,000 × g and 4 °C for 15 min. Twenty µl of supernatant was mixed with 80 µl of 50% (v/v) ACN in water. The samples were centrifuged at 17,000 × g at 4 °C f or 10 m in and the supernatant was used for analysis. Standard

[2] = target: T1, MMP-13 (Homo sapiens, UniProt P45452); experiment: Fluorometric substrate assay (MMP inhibitor profiling kit); format: biochemical
T1 construct: purchased Enzo life sciences BML-AK308
Protocol: Kit contained a panel of ten MMPs and a quenched fluorogenic substrate OMNIMMP® RED. Composition of a quenched fluorogenic substrate was TQ3-GABA-Pro-Cha-Abu-Smc-His-Ala-Dab(6’-TAMRA)-Ala-Lys-NH2 [TQ3 = quencher; GABA = 4-aminobutyric acid; Cha = L-cyclohexylalanine; Abu = 2-aminobutyric acid; Smc = S-methyl-L-cysteine; Dab = 2,4-diaminobutyric acid; 6’-TAMRA = 6’-tetramethylrhodamine]. Experiment was performed as per instructions provided in the manufacturer’s manual. The assays were performed in a 96-well, black, flat, microplate format. The compound NNGH was provided as a prototypic control inhibitor. […] Untreated MMPs were used as control. The experiment was performed in biological triplicates. After 60-min incubation, fluorogenic substrate OMNIMMP® RED was added to each reaction/well to start the reaction. The plate was continuously read at Ex/Em = 545/576 nm (cutoff at 570 nm) for 30 min with 1-min time intervals at constant temperature, 37 °C, using Molecular Devices SpectraMax M3 plate reader with SoftMax Pro 6.2 software.

In the case of `C[C@@H]1CCO[C@H]2Cn3cc(C(=O)NCc4ccc(F)cc4F)c(=O)c(O)c3C(=O)N12` [DTG, Dolutegravir], the “plasma drug levels in pregnant dams relative to maximal DTG concentration (Cmax) in human plasma at therapeutic doses” value ([1]; 50 mg/kg daily) is reported as 10 ×, the Kp ([1]; embryo brain / dam plasma, GD 16.5) is reported as 0.024 and the Kp ([1]; pup brain / dam plasma, PND 4) is reported as 0.038. The “DTG concentration in plasma of dams” value ([1]; GD 8.5, 50 mg/kg daily oral gavage from GD 0.5) was 38,628.63 ± 4855.53 ng/mL, the “ratio of embryo brain DTG levels to placenta DTG levels” value ([1]; GD 16.5) was 0.18 and the “DTG concentration in placental tissue” value ([1]; GD 16.5, 50 mg/kg daily oral) was 3528.04 ± 316.56 ng/g. For the same compound, the “DTG concentration in plasma of dams” value ([1]; GD 16.5, 50 mg/kg daily oral gavage from GD 0.5) was 27,296.3 ± 2701.15 ng/mL, the “DTG concentration in embryonic brain tissue” value ([1]; GD 16.5, 50 mg/kg daily oral to dam) was 663.6 ± 75.13 ng/g and the “DTG concentration in brain tissue of pups” value ([1]; PND 4) was 48.1 ± 2.35 ng/g. The “DTG concentration in plasma of dams” value ([1]; PND 4, dosing stopped at birth of pups) was 1244.2 ± 623.20 ng/mL, the “DTG concentration in plasma of dams” value ([1]; PND 12, dosing stopped at birth of pups) was 48.95 ± 7.39 ng/mL and the “DTG concentration in plasma of dams” value ([1]; PND 21, dosing stopped at birth of pups) was 21.97 ± 2.42 ng/mL. For the same compound, the “DTG level in pup's brain predicted from dam plasma/embryo brain ratio (detection limit)” value ([1]; PND 28, after cessation of dosing at birth) was < 0.1 ng/g, the Kp ([1]; female, placenta / dam plasma, GD 16.5) was 0.12 and the “inhibitory effect compared to doxycycline” value ([2]; MMP-13, 20 µM) was “higher inhibitory effect”. It also gave an IC50 ([2]; human recombinant MMP-13, 60 min preincubation, four-parameter fit) of 36.5 µM.
